Where two headings read alike, the source gives them in different places.
Experiments:
[1] = tested on: Aβ production in Chinese hamster ovary cells that over-express human APP695 with the London and Swedish mutations; experiment: Cellular Aβ IC50 determination (Aβ40 sandwich ELISA); details: Cricetulus griseus, CHO, 24 h
Description: The potency of compounds against memapsin 2 catalytic activity was determined in a cellular assay of Aβ production. […] Compounds are dissolved in DMSO to concentrations near 1 mM, and diluted into culture media to a final concentration near 4 μM (final 0.4% DMSO). Compounds were diluted serially and applied to cells in multi-well plates 48 h after seeding. Incubation was continued in 5% CO2 at 37 degrees C. for 24 h. Aliquots were removed and assayed for Aβ40 content using a sandwich ELISA (BioSource International). Amount of Aβ40 over the range of concentration of compounds, relative to control incubations, were fit to a 4-parameter IC50 model.

memapsin 2 = memapsin 2 (Homo sapiens, UniProt P56817); experiment: Inhibition of memapsin 2 catalytic activity (Ki); assay type: biochemical; details: memapsin 2, pH 4, 37° C.; read-out: M2K
Description: Potency of compounds were determined by measurement of their inhibition of memapsin 2 catalytic activity toward a fluorescent substrate. […] Briefly, assays were performed at pH 4, 37° C., by pre-incubation of memapsin 2 enzyme with compound for 20 minutes. Activity measure was initiated by addition of a fluorogenic substrate FS-2 (Bachem Americas, Torrance, Calif.). Fluorescent signal increase over time was measured as a rate of hydrolysis of the peptide substrate. […]

[2] = read-out: Cell, Aβ40, CHO cells over-expressing human APP695 (London and Swedish mutations), 24 h

Sequence of memapsin 2 (P56817 46-501): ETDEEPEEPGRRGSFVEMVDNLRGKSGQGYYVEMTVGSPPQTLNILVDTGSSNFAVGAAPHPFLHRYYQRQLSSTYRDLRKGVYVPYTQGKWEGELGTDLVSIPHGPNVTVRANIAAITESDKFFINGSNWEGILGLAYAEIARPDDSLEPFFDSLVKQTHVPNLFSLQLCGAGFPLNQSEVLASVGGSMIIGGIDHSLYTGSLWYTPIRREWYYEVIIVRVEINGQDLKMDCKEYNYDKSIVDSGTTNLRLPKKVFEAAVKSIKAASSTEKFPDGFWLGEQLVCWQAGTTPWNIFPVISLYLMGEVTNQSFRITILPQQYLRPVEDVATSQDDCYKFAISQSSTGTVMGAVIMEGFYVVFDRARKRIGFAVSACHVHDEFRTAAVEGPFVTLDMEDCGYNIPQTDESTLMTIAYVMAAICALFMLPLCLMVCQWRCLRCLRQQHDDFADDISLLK

SMILES | IC50 [1, 2] | Ki (memapsin 2) | IC50 ([1]; read-out: Cell)
Cc1csc(CN(C)C(=O)c2cccc(C(=O)NC(Cc3ccccc3)C(O)CNCc3cncc(OC(C)C)c3)c2)n1 (stereo not shown) [N1-(3-hydroxy-4-((5-isopropoxypyridin-3-yl)methylamino)-1-phenylbutan-2-yl)-N3-methyl-N3-((4-methylthiazol-2-yl)methyl)isophthalamide] | < 1000 nM | < 300 nM | 
Cc1csc(CN(C)C(=O)c2cccc(C(=O)NC(Cc3ccccc3)C(O)CNCc3cncc(CC(C)C)c3)c2)n1 (stereo not shown) [N1-(3-hydroxy-4-((5-isobutylpyridin-3-yl)methylamino)-1-phenylbutan-2-yl)-N3-methyl-N3-((4-methylthiazol-2-yl)methyl)isophthalamide] | < 1000 nM | < 300 nM | 
Cc1csc(CN(C)C(=O)c2cccc(C(=O)NC(Cc3ccccc3)C(O)CNCc3cccc(CC(C)C)c3)c2)n1 (stereo not shown) [N1-(3-hydroxy-4-(3-isobutylbenzylamino)-1-phenylbutan-2-yl)-N3-methyl-N3-((4-methylthiazol-2-yl)methyl)isophthalamide] | < 1000 nM | < 300 nM | 
COc1cccc(CNCC(O)C(Cc2ccccc2)NC(=O)c2cccc(C(=O)N(C)Cc3nc(C)oc3C)c2)c1 (stereo not shown) [N1-((2,5-dimethyloxazol-4-yl)methyl)-N3-(3-hydroxy-4-(3-methoxybenzylamino)-1-phenylbutan-2-yl)-N1-methylisophthalamide] | < 1000 nM | < 300 nM | 
COc1ccccc1CNCC(O)C(Cc1ccccc1)NC(=O)c1cccc(C(=O)N(C)Cc2nc(C)cs2)c1 (stereo not shown) [N1-(3-hydroxy-4-(2-methoxybenzylamino)-1-phenylbutan-2-yl)-N3-methyl-N3-((4-methylthiazol-2-yl)methyl)isophthalamide] | 1000 to 5000 nM | > 501 nM | 
COc1ccc(CNCC(O)C(Cc2ccccc2)NC(=O)c2cccc(C(=O)N(C)Cc3nc(C)cs3)c2)cc1 (stereo not shown) [N1-(3-hydroxy-4-(4-methoxybenzylamino)-1-phenylbutan-2-yl)-N3-methyl-N3-((4-methylthiazol-2-yl)methyl)isophthalamide] | 1000 to 5000 nM | > 501 nM | 
CC(NC(=O)c1cc(C(=O)NC(Cc2ccccc2)C(O)CNCc2cccn2COCC[Si](C)(C)C)cc(N(C)S(C)(=O)=O)c1)c1ccccc1 (stereo not shown) [N1-(3-hydroxy-1-phenyl-4-((1-((2-(trimethylsilyl)ethoxy)methyl)-1H-pyrrol-2-yl)methylamino)butan-2-yl)-5-(N-methylmethylsulfonamido)-N3-(1-phenylethyl)isophthalamide] |  | 301 to 500 nM | < 1000 nM
CCN(Cc1nc(C)cs1)C(=O)c1cccc(C(=O)NC(Cc2ccccc2)C(O)CNCc2cccc(OC)c2)c1 (stereo not shown) [N1-ethyl-N3-(3-hydroxy-4-(3-methoxybenzylamino)-1-phenylbutan-2-yl)-N1-((4-methylthiazol-2-yl)methyl)isophthalamide] | < 1000 nM | < 300 nM | 
Cc1csc(CN(C)C(=O)c2cccc(C(=O)NC(Cc3ccccc3)C(O)CNCc3cncc(OCC(C)C)c3)c2)n1 (stereo not shown) [N1-(3-hydroxy-4-((5-isobutoxypyridin-3-yl)methylamino)-1-phenylbutan-2-yl)-N3-methyl-N3-((4-methylthiazol-2-yl)methyl)isophthalamide] | < 1000 nM | < 300 nM | 
Cc1csc(CN(C)C(=O)c2cccc(C(=O)NC(Cc3ccccc3)C(O)CNCc3cccc(OC(F)(F)F)c3)c2)n1 (stereo not shown) [N1-(3-hydroxy-1-phenyl-4-(3-(trifluoromethoxy)benzylamino)butan-2-yl)-N3-methyl-N3-((4-methylthiazol-2-yl)methyl)isophthalamide] | < 1000 nM | < 300 nM | 
COc1ccccc1CCNCC(O)C(Cc1ccccc1)NC(=O)c1cccc(C(=O)N(C)Cc2nc(C)cs2)c1 (stereo not shown) [N1-(3-hydroxy-4-(2-methoxyphenethylamino)-1-phenylbutan-2-yl)-N3-methyl-N3-((4-methylthiazol-2-yl)methyl)isophthalamide] | 1000 to 5000 nM | > 501 nM | 
COc1cccc(CNCC(O)C(Cc2ccccc2)NC(=O)c2cc(C(=O)NCc3nc(CO)co3)cc(N(C)S(C)(=O)=O)c2)c1 (stereo not shown) [N1-(3-hydroxy-4-(3-methoxybenzylamino)-1-phenylbutan-2-yl)-N3-((4-(hydroxymethyl)oxazol-2-yl)methyl)-5-(N-methylmethylsulfonamido)isophthalamide] | > 5000 nM | 301 to 500 nM | 

Now from value to compound, other results behind:

IC50 [1, 2] | Ki (memapsin 2) | SMILES | IC50 ([1]; read-out: Cell)
< 1000 nM | < 300 nM | COc1cccc(CNCC(O)C(Cc2ccccc2)NC(=O)c2cc(CS(C)(=O)=O)cc(C(=O)NC(C)c3ccccc3)c2)c1 (stereo not shown) [N1-(3-hydroxy-4-(3-methoxybenzylamino)-1-phenylbutan-2-yl)-5-(methylsulfonylmethyl)-N3-(1-phenylethyl)isophthalamide] | 
< 1000 nM | < 300 nM | CC(NC(=O)c1cc(C(=O)NC(Cc2ccccc2)C(O)CNCc2cccc(OC(F)(F)F)c2)cc(N(C)S(C)(=O)=O)c1)c1ccccc1 (stereo not shown) [N1-(3-hydroxy-1-phenyl-4-(3-(trifluoromethoxy)benzylamino)butan-2-yl)-5-(N-methylmethylsulfonamido)-N3-(1-phenylethyl)isophthalamide] | 
1000 to 5000 nM | 301 to 500 nM | CC(NC(=O)c1cc(C(=O)NC(Cc2ccccc2)C(O)CNCc2c[nH]cn2)cc(N(C)S(C)(=O)=O)c1)c1ccccc1 (stereo not shown) [N1-(4-((1H-imidazol-4-yl)methylamino)-3-hydroxy-1-phenylbutan-2-yl)-5-(N-methylmethylsulfonamido)-N3-(1-phenylethyl)isophthalamide] | 
< 1000 nM | < 300 nM | CCOc1cccc(CNCC(O)C(Cc2ccccc2)NC(=O)c2cc(C(=O)NC(C)c3ccccc3)cc(N(C)S(C)(=O)=O)c2)c1 (stereo not shown) [N1-(4-(3-ethoxybenzylamino)-3-hydroxy-1-phenylbutan-2-yl)-5-(N-methylmethylsulfonamido)-N3-(1-phenylethyl)isophthalamide] | 
> 5000 nM | > 501 nM | CC(NC(=O)c1cc(C(=O)NC(Cc2ccccc2)C(O)CNCC2CCCN2C)cc(N(C)S(C)(=O)=O)c1)c1ccccc1 (stereo not shown) [N1-(3-hydroxy-4-((1-methylpyrrolidin-2-yl)methylamino)-1-phenylbutan-2-yl)-5-(N-methylmethylsulfonamido)-N3-(1-phenylethyl)isophthalamide] | 
1000 to 5000 nM | > 501 nM | COC1CCCC(CNCC(O)C(Cc2ccccc2)NC(=O)c2cc(C(=O)NC(C)c3ccccc3)cc(N(C)S(C)(=O)=O)c2)C1 (stereo not shown) [N1-(3-hydroxy-4-((3-methoxycyclohexyl)methylamino)-1-phenylbutan-2-yl)-5-(N-methylmethylsulfonamido)-N3-(1-phenylethyl)isophthalamide] | 
> 5000 nM | 301 to 500 nM | COc1cccc(CNCC(O)C(Cc2ccccc2OC)NC(=O)c2cc(C(=O)NC(C)c3ccccc3)cc(N(C)S(C)(=O)=O)c2)c1 (stereo not shown) [N1-(3-hydroxy-4-(3-methoxybenzylamino)-1-(2-methoxyphenyl)butan-2-yl)-5-(N-methylmethylsulfonamido)-N3-(1-phenylethyl)isophthalamide] | 
< 1000 nM | < 300 nM | COc1ccc(CCNCC(O)C(Cc2ccccc2)NC(=O)c2cc(C(=O)NC(C)c3ccccc3)cc(N(C)S(C)(=O)=O)c2)cc1OC (stereo not shown) [N1-(4-(3,4-dimethoxyphenethylamino)-3-hydroxy-1-phenylbutan-2-yl)-5-(N-methylmethylsulfonamido)-N3-(1-phenylethyl)isophthalamide] | 
< 1000 nM | < 300 nM | C#Cc1cccc(CNCC(O)C(Cc2ccccc2)NC(=O)c2cc(C(=O)NC(C)c3ccccc3)cc(N(C)S(C)(=O)=O)c2)c1 (stereo not shown) [N1-(4-(3-ethynylbenzylamino)-3-hydroxy-1-phenylbutan-2-yl)-5-(N-methylmethylsulfonamido)-N3-(1-phenylethyl)isophthalamide] | 
> 5000 nM | > 501 nM | COc1cccc(CN2CCC(CNCC(O)C(Cc3ccccc3)NC(=O)c3cc(C(=O)NC(C)c4ccccc4)cc(N(C)S(C)(=O)=O)c3)CC2)c1 (stereo not shown) [N1-(3-hydroxy-4-((1-(3-methoxybenzyl)piperidin-4-yl)methylamino)-1-phenylbutan-2-yl)-5-(N-methylmethylsulfonamido)-N3-(1-phenylethyl)isophthalamide] | 
< 1000 nM | < 300 nM | Cc1cc(C(C)NCC(O)C(Cc2ccccc2)NC(=O)c2cc(C(=O)NC(C)c3ccccc3)cc(N(C)S(C)(=O)=O)c2)on1 (stereo not shown) [N1-(3-hydroxy-4-(1-(3-methylisoxazol-5-yl)ethylamino)-1-phenylbutan-2-yl)-5-(N-methylmethylsulfonamido)-N3-(1-phenylethyl)isophthalamide] | 
1000 to 5000 nM | < 300 nM | COc1cc(CCCNCC(O)C(Cc2ccccc2)NC(=O)c2cc(C(=O)NC(C)c3ccccc3)cc(N(C)S(C)(=O)=O)c2)ccc1C (stereo not shown) [N1-(3-hydroxy-4-(3-(3-methoxy-4-methylphenyl)propylamino)-1-phenylbutan-2-yl)-5-(N-methylmethylsulfonamido)-N3-(1-phenylethyl)isophthalamide] | 
< 1000 nM | < 300 nM | COc1cccc(CNCC(O)C(Cc2ccccc2)NC(=O)c2cc(C(=O)NC(C)c3nc(C)co3)cc(N(C)S(C)(=O)=O)c2)c1 (stereo not shown) [N1-(3-hydroxy-4-(3-methoxybenzylamino)-1-phenylbutan-2-yl)-5-(N-methylmethylsulfonamido)-N3-(1-(4-methyloxazol-2-yl)ethyl)isophthalamide] | 
1000 to 5000 nM | > 501 nM | COc1ccc(S(=O)(=O)NCC(O)C(Cc2ccccc2)NC(=O)c2cc(C(=O)NC(C)c3ccccc3)cc(N(C)S(C)(=O)=O)c2)cc1 (stereo not shown) [N1-(3-hydroxy-4-(4-methoxyphenylsulfonamido)-1-phenylbutan-2-yl)-5-(N-methylmethylsulfonamido)-N3-(1-phenylethyl)isophthalamide] | 

— patent publication US7504420B2, “Compounds which inhibit beta-secretase activity and methods of use” (CoMentis, Inc., priority 2005, dated 2009)
